{"source": "ChEMBL document CHEMBL1201862", "about": "“PubChem BioAssay data set” (2004)", "key": {"[1]": {"target": "T1, Protein RecA (Mycobacterium tuberculosis, UniProt P9WHJ3)", "T1 sequence (P9WHJ3 whole entry)": "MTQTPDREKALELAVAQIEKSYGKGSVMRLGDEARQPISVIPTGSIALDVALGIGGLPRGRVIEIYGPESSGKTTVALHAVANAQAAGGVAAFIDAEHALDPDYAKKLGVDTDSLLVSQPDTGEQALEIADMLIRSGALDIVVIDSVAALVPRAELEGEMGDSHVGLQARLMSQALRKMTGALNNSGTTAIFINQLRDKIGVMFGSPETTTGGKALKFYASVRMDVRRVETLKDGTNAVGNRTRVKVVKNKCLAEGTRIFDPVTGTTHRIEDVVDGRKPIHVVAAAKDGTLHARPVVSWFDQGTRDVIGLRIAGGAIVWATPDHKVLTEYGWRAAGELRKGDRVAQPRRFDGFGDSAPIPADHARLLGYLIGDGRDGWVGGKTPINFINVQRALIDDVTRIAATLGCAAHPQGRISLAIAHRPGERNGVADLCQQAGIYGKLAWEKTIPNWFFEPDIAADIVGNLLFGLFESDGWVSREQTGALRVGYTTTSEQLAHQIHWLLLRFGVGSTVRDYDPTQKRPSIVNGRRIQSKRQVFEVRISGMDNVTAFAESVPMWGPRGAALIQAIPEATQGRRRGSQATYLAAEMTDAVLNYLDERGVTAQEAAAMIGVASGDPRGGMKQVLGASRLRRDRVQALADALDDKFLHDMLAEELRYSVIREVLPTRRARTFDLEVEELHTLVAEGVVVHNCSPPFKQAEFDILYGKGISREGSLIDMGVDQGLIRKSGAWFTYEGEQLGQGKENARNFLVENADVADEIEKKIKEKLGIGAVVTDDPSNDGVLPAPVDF", "test": "Fluorescence Cell-Free Homogeneous Dose Retest to Identify Inhibitors of RecA-Intein Splicing Activity. [Related pubchem assays (depositor defined):AID2097, AID2223, AID489010, AID492950]", "type": "functional"}, "[2]": {"target": "T2, Replicative DNA helicase DnaB (Mycobacterium tuberculosis, UniProt P9WMR3)", "T2 sequence (P9WMR3 whole entry)": "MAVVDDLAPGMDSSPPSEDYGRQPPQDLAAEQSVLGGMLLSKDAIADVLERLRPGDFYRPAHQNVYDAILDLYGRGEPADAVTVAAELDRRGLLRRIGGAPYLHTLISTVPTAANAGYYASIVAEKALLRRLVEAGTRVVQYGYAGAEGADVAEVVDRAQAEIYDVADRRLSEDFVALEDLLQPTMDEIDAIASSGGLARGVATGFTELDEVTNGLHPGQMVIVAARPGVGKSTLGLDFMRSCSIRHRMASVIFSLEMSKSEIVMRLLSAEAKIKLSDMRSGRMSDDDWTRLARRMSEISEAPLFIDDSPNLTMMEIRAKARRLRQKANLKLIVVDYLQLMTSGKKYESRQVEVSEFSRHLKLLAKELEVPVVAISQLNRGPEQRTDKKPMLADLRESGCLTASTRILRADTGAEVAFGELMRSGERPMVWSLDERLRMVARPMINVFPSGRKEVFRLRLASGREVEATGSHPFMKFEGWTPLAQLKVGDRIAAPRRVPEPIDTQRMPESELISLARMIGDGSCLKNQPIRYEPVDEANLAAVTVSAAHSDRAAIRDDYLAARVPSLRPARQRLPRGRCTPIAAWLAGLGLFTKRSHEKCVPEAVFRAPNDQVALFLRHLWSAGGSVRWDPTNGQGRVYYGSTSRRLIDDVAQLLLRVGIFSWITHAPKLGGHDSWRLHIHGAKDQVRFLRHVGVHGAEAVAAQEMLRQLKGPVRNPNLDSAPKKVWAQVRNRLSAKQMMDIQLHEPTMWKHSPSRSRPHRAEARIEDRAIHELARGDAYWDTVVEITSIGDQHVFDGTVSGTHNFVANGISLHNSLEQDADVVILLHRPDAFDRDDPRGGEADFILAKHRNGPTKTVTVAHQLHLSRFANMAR", "test": "DnaB intein splicing inhibitors, dose response, biochemical, cell-free fluorescence (AID 449749)", "type": "functional"}, "[3]": {"test": "Luminescent dose response cell-based high throughput screening assay for inhibitors of the Janus kinase 2 mutant JAK2V617F. [Related pubchem assays: 1446 (Primary screen.), 1521 (Confirmation assay.), 1486 (Counter screen.)]", "type": "functional"}, "[4]": {"test": "Intein inhibitors as potential Tuberculosis drugs, a cytotoxicity screen. [Related pubchem assays (depositor defined):AID2221, AID2223, AID434968, AID435010, AID449749, AID449750, AID489010]", "type": "functional"}, "[5]": {"test": "mammalian cell cytotoxicity, dose response, cytotoxicity control, plate reader, cherry-pick samples (AID 504397)", "type": "functional, cell-based"}, "[6]": {"target": "T3, Kappa-type opioid receptor (Homo sapiens, UniProt P41145)", "T3 sequence (P41145 whole entry)": "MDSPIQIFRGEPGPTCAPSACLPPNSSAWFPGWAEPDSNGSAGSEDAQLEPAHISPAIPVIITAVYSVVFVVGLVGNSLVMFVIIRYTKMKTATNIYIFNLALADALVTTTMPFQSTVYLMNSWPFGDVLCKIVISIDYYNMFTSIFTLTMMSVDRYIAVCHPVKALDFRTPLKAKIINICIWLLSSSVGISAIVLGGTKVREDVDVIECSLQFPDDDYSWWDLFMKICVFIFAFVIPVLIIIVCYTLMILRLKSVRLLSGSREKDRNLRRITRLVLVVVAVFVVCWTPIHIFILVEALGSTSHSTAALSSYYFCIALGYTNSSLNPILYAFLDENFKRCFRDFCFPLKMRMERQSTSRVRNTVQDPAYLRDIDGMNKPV", "test": "SAR analysis of small molecule agonists of the kappa opioid receptor via a luminescent beta-arrestin assay - Set 3. [Related pubchem assays (depositor defined):AID1777, AID1785, AID1786, AID1966, AID2133, AID2136, AID2284, AID2500]", "type": "functional"}, "[7]": {"target": "Mu-type opioid receptor (Homo sapiens, UniProt P35372)", "sequence (P35372 whole entry)": "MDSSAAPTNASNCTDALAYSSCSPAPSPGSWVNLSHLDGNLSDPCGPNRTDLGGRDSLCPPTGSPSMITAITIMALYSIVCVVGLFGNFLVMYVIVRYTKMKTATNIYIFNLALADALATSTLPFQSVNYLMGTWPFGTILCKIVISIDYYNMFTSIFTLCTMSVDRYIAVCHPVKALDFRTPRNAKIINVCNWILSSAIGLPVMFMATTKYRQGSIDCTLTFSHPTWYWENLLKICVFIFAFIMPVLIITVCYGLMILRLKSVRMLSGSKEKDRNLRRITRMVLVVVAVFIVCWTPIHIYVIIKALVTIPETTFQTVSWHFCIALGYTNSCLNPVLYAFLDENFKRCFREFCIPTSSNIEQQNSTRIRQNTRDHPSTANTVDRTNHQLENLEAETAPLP", "test": "SAR Analysis of Agonists of the MOR Receptor using an Image-Based Assay - Set 3. [Related pubchem assays (depositor defined):AID1777, AID1785, AID1786, AID1966, AID2133, AID2136, AID2284, AID2285, AID2352]", "type": "functional"}, "[8]": {"target": "T3, Kappa-type opioid receptor", "test": "KOR agonist analogs, arrestin-GFP redistribution, SAR follow-up, imaging, image-based, set 3 (AID 488833)", "type": "functional"}, "[9]": {"target": "Delta-type opioid receptor (Homo sapiens, UniProt P41143)", "sequence (P41143 whole entry)": "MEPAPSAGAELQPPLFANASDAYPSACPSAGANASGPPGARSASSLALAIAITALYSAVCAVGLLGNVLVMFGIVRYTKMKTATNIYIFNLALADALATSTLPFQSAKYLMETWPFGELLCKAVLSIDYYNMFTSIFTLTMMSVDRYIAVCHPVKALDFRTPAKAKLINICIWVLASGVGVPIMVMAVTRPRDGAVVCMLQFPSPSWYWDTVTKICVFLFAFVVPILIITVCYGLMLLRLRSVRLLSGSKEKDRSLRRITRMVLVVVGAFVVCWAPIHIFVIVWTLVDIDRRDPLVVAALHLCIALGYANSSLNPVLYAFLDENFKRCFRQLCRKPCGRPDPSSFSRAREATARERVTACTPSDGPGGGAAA", "test": "SAR Analysis of Agonists of the DOR Receptor using an Image-Based Assay - Set 3. [Related pubchem assays (depositor defined):AID1777, AID1786]", "type": "functional"}, "[10]": {"target": "T4, Cannabinoid receptor 1 (Homo sapiens, UniProt P21554)", "T4 sequence (P21554 whole entry)": "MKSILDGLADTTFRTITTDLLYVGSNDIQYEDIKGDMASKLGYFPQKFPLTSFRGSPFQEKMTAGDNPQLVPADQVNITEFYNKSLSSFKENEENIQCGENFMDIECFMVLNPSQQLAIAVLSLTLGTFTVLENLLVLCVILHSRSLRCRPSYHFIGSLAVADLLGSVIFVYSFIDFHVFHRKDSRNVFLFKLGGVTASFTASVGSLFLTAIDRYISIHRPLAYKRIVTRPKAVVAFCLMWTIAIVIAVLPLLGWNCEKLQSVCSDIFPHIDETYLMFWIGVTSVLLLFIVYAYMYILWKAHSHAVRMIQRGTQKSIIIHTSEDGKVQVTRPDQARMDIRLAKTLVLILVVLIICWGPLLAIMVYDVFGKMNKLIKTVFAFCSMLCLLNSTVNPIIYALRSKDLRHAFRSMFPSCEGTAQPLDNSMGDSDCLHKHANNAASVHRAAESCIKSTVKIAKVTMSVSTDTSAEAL", "test": "SAR analysis of agonists of the Cannabinoid Receptor 1 using an Image-Based Assay - Set 4. [Related pubchem assays (depositor defined):AID2013, AID2026]", "type": "functional"}, "[11]": {"target": "T5, Cannabinoid receptor 2 (Homo sapiens, UniProt P34972)", "T5 sequence (P34972 whole entry)": "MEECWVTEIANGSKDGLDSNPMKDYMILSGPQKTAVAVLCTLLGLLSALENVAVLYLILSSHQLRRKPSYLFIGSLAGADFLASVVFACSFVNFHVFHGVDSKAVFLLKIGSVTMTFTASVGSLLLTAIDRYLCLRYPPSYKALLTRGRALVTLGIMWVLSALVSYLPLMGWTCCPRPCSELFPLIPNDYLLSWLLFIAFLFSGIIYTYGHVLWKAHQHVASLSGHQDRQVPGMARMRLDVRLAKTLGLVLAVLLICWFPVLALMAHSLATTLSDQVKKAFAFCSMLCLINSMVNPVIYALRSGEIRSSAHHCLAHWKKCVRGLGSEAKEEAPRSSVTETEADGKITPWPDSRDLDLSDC", "test": "SAR analysis of antagonists of the Cannabinoid Receptor 2 using an Image-Based Assay - Set 3. [Related pubchem assays (depositor defined):AID2013, AID2026]", "type": "functional"}, "[12]": {"target": "T4, Cannabinoid receptor 1", "test": "SAR analysis of antagonists of the Cannabinoid Receptor 1 using an Image-Based Assay - Set 4. [Related pubchem assays (depositor defined):AID2013, AID2026]", "type": "functional"}, "[13]": {"target": "T6, G-protein coupled receptor 35 (Homo sapiens, UniProt Q9HC97)", "T6 sequence (Q9HC97 whole entry)": "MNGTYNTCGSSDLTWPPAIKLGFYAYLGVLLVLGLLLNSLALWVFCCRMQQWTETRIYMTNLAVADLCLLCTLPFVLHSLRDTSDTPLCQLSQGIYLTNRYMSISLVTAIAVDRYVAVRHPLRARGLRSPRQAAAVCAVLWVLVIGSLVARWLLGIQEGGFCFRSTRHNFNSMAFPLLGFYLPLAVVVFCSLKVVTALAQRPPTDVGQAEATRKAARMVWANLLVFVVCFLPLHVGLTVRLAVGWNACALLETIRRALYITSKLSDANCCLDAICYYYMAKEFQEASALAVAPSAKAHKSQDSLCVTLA", "test": "SAR analysis of Agonists of the GPR35 Receptor using an Image-Based Assay - Set 4. [Related pubchem assays (depositor defined):AID2013, AID2026]", "type": "functional"}, "[14]": {"target": "G-protein coupled receptor 55 (Homo sapiens, UniProt Q9Y2T6)", "sequence (Q9Y2T6 whole entry)": "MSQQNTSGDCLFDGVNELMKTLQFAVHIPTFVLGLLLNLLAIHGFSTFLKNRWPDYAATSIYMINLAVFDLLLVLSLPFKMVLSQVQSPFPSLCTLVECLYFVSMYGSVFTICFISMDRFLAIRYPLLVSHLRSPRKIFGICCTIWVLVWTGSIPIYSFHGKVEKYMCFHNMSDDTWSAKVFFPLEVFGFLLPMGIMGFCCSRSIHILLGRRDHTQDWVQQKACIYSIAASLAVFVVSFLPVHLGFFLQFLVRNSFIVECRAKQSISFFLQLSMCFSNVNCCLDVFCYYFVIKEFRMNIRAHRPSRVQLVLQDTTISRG", "test": "SAR Analysis of Selective Antagonists of GPR55 using an Image-Based Assay - Set 4. [Related pubchem assays (depositor defined):AID2013, AID2026]", "type": "functional"}, "[15]": {"target": "T5, Cannabinoid receptor 2", "test": "SAR analysis of agonists of the Cannabinoid Receptor 2 using an Image-Based Assay - Set 3. [Related pubchem assays (depositor defined):AID2013, AID2026]", "type": "functional"}, "[16]": {"target": "T6, G-protein coupled receptor 35", "test": "SAR analysis of Antagonists of the GPR35 Receptor using an Image-Based Assay - Set 6. [Related pubchem assays (depositor defined):AID2013, AID2026]", "type": "functional"}, "[17]": {"target": "T7, Type-1 angiotensin II receptor (Homo sapiens, UniProt P30556)", "T7 sequence (P30556 whole entry)": "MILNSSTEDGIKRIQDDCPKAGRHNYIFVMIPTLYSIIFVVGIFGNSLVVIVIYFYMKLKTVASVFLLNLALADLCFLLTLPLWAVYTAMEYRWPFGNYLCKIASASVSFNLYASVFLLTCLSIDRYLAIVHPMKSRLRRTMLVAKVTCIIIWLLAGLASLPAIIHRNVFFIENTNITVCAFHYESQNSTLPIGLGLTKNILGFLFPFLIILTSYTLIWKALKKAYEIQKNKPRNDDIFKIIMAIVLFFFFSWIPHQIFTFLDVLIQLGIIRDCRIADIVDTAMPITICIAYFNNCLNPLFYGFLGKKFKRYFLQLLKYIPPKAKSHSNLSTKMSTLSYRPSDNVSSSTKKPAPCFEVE", "test": "AT1 receptor agonists, dose response, selectivity assay for APJ receptor agonist project, cell-based, uHTS hits (AID 488865);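 note: beta-arrestin recruitment to AT1 measured by enzyme fragment complementation luminescence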", "type": "functional"}}, "note": "Active and inactive are the calls of the source.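 Throughout, for CC50: cells exposed to compound for 72 hours before luminescence readout.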", "data": [{"smiles": "Cc1ccc(C)c(Sc2ccc(NC(=O)CCl)cc2)c1", "values": [{"measurement": "EC50", "setting": "[1]", "value": "0.602 µM (active)"}, {"measurement": "AC50", "setting": "[2]", "value": "2.3 µM (active)"}, {"measurement": "IC50", "setting": "[3]", "value": "0.743 µM (active)"}, {"measurement": "CC50", "setting": "[4]", "value": "7.6 µM (active)"}]}, {"smiles": "O=C(Nc1ccccc1N1CCOCC1)C1CCN(S(=O)(=O)c2ccc(F)cc2)CC1", "values": [{"measurement": "AC50", "setting": "[5]", "value": "> 350 µM (inactive)"}]}, {"smiles": "FC(F)(F)c1cc(CSc2nnc(-c3ccccn3)n2Cc2cccs2)ccc1Cl", "values": [{"measurement": "EC50", "setting": "[6]", "value": "0.432 µM (active)"}, {"measurement": "EC50", "setting": "[7]", "value": "> 32 µM (inactive)"}, {"measurement": "EC50", "setting": "[8]", "value": "1.38 µM (active)"}, {"measurement": "EC50", "setting": "[9]", "value": "> 32 µM (inactive)"}]}, {"smiles": "Cc1nnc(-c2ccccc2)c2cn(-c3ccc(Cl)cc3)nc12", "values": [{"measurement": "EC50", "setting": "[10]", "value": "> 32 µM (inactive)"}, {"measurement": "IC50", "setting": "[11]", "value": "> 32 µM (inactive)"}, {"measurement": "IC50", "setting": "[12]", "value": "3.63 µM (active)"}, {"measurement": "EC50", "setting": "[13]", "value": "> 32 µM (inactive)"}, {"measurement": "IC50", "setting": "[14]", "value": "1.77 µM (active)"}, {"measurement": "EC50", "setting": "[15]", "value": "> 32 µM (inactive)"}, {"measurement": "IC50", "setting": "[16]", "value": "23 µM (inactive)"}]}, {"smiles": "Cc1ccc(/C=N/NC(=O)CSc2nnc(-c3ccccc3)n2-c2ccc(Cl)cc2)o1", "values": [{"measurement": "EC50", "setting": "[17]", "value": "> 100 µM (inactive)"}]}]}
